These are literature values, as cited in patent publication US10004754B2, “ANP fragment adjuvant therapy to standard of care (SOC) diuretic treatment” (MADELEINE PHARMACEUTICALS PTY LTD, priority 2014, dated 2018).

The subject of this series is ADCHF patients. To be noted: cited from earlier work.

Take “nesiritide: A recombinant form of human BNP, approved by the FDA for the treatment of ADCHF”: under “Gottlieb, 2013”, the “diuresis in ADCHF patients” value is recorded as “does not increase diuresis”. Further, the “patient mortality or re-hospitalisation rate” value (O'Conner et al., 2011) was “not associated with a change”.
